From patent publication US20250162989A1, “USP30 INHIBITORS AND USES THEREOF” (Vincere Biosciences, Inc., priority 2021, published 2025)
pIC50: −log10 of the molar value. Read-outs that look alike come from different tables or passages of the source.

Columns and labels:
[1] = molecular target: USP30 (Homo sapiens (Human), UniProt Q70CQ3); test: Dundee MALDI-TOF mass spectrometry assay (K48-linked diubiquitin cleavage); assay type: biochemical; conditions: USP30 25 ng/μl, K48-linked diubiquitin 5.6 μM; for IC50: read-out: USP30 IC50 μM (avg); for pIC50: read-out: IC50
USP30, sequence (Q70CQ3 whole entry): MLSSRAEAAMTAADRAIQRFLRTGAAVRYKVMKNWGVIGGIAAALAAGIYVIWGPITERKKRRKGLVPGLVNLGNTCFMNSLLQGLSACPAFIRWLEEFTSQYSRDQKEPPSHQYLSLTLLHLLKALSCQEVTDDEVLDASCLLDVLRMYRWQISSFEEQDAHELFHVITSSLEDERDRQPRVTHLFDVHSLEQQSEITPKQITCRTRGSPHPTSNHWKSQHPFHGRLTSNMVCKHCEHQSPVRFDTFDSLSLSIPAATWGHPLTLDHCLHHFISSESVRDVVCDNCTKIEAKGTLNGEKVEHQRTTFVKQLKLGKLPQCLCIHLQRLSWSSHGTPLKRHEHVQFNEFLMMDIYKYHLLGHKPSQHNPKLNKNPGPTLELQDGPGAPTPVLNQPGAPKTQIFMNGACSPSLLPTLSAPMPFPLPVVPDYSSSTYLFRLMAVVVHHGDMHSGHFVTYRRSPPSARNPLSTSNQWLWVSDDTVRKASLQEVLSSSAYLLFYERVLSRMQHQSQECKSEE
Protocol: USP30 was diluted in a buffer containing 40 mM Tris, 0.01% BSA, 1 mM DTT and K48 in 40 mM Tris, 0.01% BSA.
The compounds were pre-incubated with the USP30 for 5 mins at room temp before the K48 dimer addition. The assay mixture was then incubated for 45 mins at room temp. The assay was stopped by the addition of TFA to a final concentration of 2% (v/v).
Acidified samples of the DUB assays were mixed with 0.5 mM 15N-ubiquitin and then with one part of 2% (v/v) TFA and one part of 2.5 DHAP matrix solution (7.6 mg of 2.5 DHAP in […] ethanol and […] of an aqueous 12 mg ml 1 diammonium hydrogen citrate).

[2] = molecular target: recombinant USP30 (amino acids 57-517 of the human sequence) (Homo sapiens (Human), UniProt Q70CQ3); test: In vitro USP30 biochemical assay (Ubiquitin-Rhodamine substrate); conditions: fluorescence
recombinant USP30 (amino acids 57-517 of the human sequence), sequence (Q70CQ3 57-517): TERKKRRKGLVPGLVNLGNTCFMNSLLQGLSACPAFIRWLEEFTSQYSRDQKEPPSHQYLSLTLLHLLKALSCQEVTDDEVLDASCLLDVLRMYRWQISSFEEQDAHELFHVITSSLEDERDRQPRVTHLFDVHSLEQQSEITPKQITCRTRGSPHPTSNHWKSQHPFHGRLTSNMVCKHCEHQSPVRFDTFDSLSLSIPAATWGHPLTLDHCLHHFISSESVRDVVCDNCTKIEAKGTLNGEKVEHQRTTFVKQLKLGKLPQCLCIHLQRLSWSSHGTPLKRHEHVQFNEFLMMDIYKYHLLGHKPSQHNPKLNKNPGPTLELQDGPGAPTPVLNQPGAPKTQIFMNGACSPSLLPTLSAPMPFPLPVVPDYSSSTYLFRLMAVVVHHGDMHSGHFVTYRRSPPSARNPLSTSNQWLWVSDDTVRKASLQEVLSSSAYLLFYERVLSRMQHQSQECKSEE
Protocol: In vitro biochemical assay to establish the potency of compounds for USP30 inhibition: a 384-well plate assay using a fluorophore tagged substrate of USP30 was used for in vitro screening of compounds. Each compound was tested at
10 different concentrations (0.5 to 10,000 nM) in duplicate wells. […] Data were analyzed using Graph Pad Prism software with a four-parameter (floating slope) fit to log concentration data to determine IC50s.

[3] = […] recombinant USP30, 25 nM Ubiquitin-Rhodamine
[4] = 1.5 nM recombinant USP30, 25 nM Ubiquitin-Rhodamine

Row | IC50 [1] [µM] | IC50 [2, 3] [µM] | IC50 [2, 4] [µM] | pIC50 [1] | SMILES
1 | < 0.05 | < 0.05 | – | – | C[C@H](CO)NS(=O)(=O)c1ccc(NC(=O)[C@H](Cc2ccccc2)NC(=O)c2ccc(F)cc2)cc1 [Compound I-130]
2 | < 0.05 | – | 0.05 to 1 | – | COc1cc(NC(=O)[C@H](CC2CCNCC2)NC(=O)c2ccc(F)cc2)ccc1S(=O)(=O)NC(C)(C)C [Compound I-155]
3 | < 0.05 | – | 0.05 to 1 | – | COc1cc(NC(=O)[C@H](Cc2ccccc2)NC(=O)c2ccc(F)cc2)ccc1S(=O)(=O)NC1(CO)CC1 [Compound I-141]
4 | 0.05 to 1 | – | 0.05 to 1 | – | CC(CO)(CO)NS(=O)(=O)c1ccc(NC(=O)[C@H](Cc2ccccc2)NC(=O)c2ccc(F)cc2)cn1 [Compound I-148]
5 | 0.05 to 1 | – | 0.05 to 1 | – | CC(C)(C)NS(=O)(=O)c1ccc(NC(=O)[C@H](CC2CCNCC2)NC(=O)c2ccc(F)nc2)cc1 [Compound I-186]
6 | 0.05 to 1 | – | 0.05 to 1 | – | COc1cc(NC(=O)[C@H](CC2CCN(C)CC2)NC(=O)c2ccc(F)cc2)ccc1S(=O)(=O)NC(C)(C)CO [Compound I-93]
7 | < 0.05 | – | 0.05 to 1 | – | O=C(N[C@@H](CC1CCOCC1)C(=O)Nc1ccc(S(=O)(=O)NC2CCC2)nc1)c1ccc(F)cc1 [Compound I-91]
8 | 0.05 to 1 | – | 0.05 to 1 | – | COc1cc(NC(=O)[C@H](CC2CCOCC2)NC(=O)c2ccc(F)cc2)ccc1S(=O)(=O)NC(C)(C)CO [Compound I-85]
9 | < 0.05 | – | 0.05 to 1 | – | C[C@@H](CO)NS(=O)(=O)c1ccc(NC(=O)[C@H](Cc2ccccc2)NC(=O)c2ccc(F)cc2)cn1 [Compound I-149]
10 | < 0.05 | < 0.05 | – | – | CC(C)(C)NS(=O)(=O)c1ccc(NC(=O)[C@H](Cc2ccccc2)NC(=O)c2ccc(F)nc2)cc1 [Compound I-163]
11 | < 0.05 | – | 0.05 to 1 | – | CC(C)(CF)NS(=O)(=O)c1ccc(NC(=O)[C@H](CC2CCNCC2)NC(=O)c2ccc(F)cc2)cc1 [Compound I-122]
12 | 0.05 to 1 | – | 0.05 to 1 | – | CC(C)(CO)NS(=O)(=O)c1ccc(NC(=O)C(CC2CCNCC2)NC(=O)c2ccc(F)cc2)cc1 (stereo not drawn) [Compound I-72]
13 | < 0.05 | – | 0.05 to 1 | – | CC(C)(NS(=O)(=O)c1ccc(NC(=O)[C@H](Cc2ccccc2)NC(=O)c2ccc(F)cn2)cc1)C(F)(F)F [Compound I-201]
14 | < 0.05 | – | 0.05 to 1 | – | CC(C)C[C@H](NC(=O)c1ccc(F)cc1)C(=O)Nc1ccc(S(=O)(=O)N[C@@H]2CCOC2)cc1 [Compound I-71]
15 | – | – | 0.05 to 1 | > 7.30 | O=C(N[C@@H](Cc1ccccc1)C(=O)Nc1ccc(S(=O)(=O)NC2COC2)c(C(F)(F)F)c1)c1ccc(F)cc1 [Compound I-68]
16 | < 0.05 | < 0.05 | – | – | COc1cc(NC(=O)[C@H](CC2CCOCC2)NC(=O)c2ccc(F)cc2)ccc1S(=O)(=O)NC1CCCC1 [Compound I-87]
17 | < 0.05 | – | 0.05 to 1 | – | CN1CCC(C[C@H](NC(=O)c2ccc(F)cc2)C(=O)Nc2ccc(S(=O)(=O)NC3CCOCC3)cc2)CC1 [Compound I-164]
18 | 0.05 to 1 | – | 0.05 to 1 | – | COc1cc(NC(=O)[C@H](CC2CCNCC2)NC(=O)c2ccc(F)cc2)ccc1S(=O)(=O)NC(C)(C)CO [Compound I-159]
19 | 0.05 to 1 | – | 0.05 to 1 | – | CC(C)(C)NS(=O)(=O)c1ccc(NC(=O)[C@H](Cc2ccccc2)NC(=O)C2CCOCC2)cc1 [Compound I-174]
20 | – | – | 0.05 to 1 | > 7.30 | O=C(N[C@@H](Cc1ccccc1)C(=O)Nc1ccc(S(=O)(=O)NC23CC(C2)C3)c(C(F)(F)F)c1)c1ccc(F)cc1 [Compound I-69]
21 | < 0.05 | < 0.05 | – | – | CC(C)(C)NS(=O)(=O)c1ccc(NC(=O)C(CC2CCN(CCO)CC2)NC(=O)c2ccc(F)cc2)cc1 (stereo not drawn) [Compound I-121]
22 | 0.05 to 1 | – | 0.05 to 1 | – | COc1cc(NC(=O)[C@H](CC2CCN(C)CC2)NC(=O)c2ccc(F)cc2)ccc1S(=O)(=O)NC1CCOCC1 [Compound I-143]
23 | 0.05 to 1 | – | 0.05 to 1 | – | Cn1cncc1CNS(=O)(=O)c1ccc(NC(=O)[C@H](Cc2ccccc2)NC(=O)c2ccc(F)cc2)cc1 [Compound I-227]
24 | < 0.05 | < 0.05 | – | – | CC(=O)N1CCC(C[C@H](NC(=O)c2ccc(F)cc2)C(=O)Nc2ccc(S(=O)(=O)NC(C)(C)C)nc2)CC1 [Compound I-156]

Row | IC50 [1] [µM] | IC50 [2, 3] [µM] | IC50 [2, 4] [µM] | pIC50 [1] | SMILES
25 | < 0.05 | – | 0.05 to 1 | – | C[C@H](CO)NS(=O)(=O)c1ccc(NC(=O)[C@H](Cc2ccccc2)NC(=O)c2ccc(F)cc2)cn1 [Compound I-151]
26 | 0.05 to 1 | – | 0.05 to 1 | – | COc1cc(NC(=O)[C@@H]2C[C@@H](c3ccccc3)CN2C(=O)c2ccc(F)cc2)ccc1S(=O)(=O)NC(C)(C)CO [Compound I-272]
27 | < 0.05 | – | 0.05 to 1 | – | O=C(N[C@@H](Cc1ccccc1)C(=O)Nc1ccc(S(=O)(=O)NC2(CF)CC2)cc1)c1ccc(F)cc1 [Compound I-200]
28 | < 0.05 | – | 0.05 to 1 | – | COc1cc(NC(=O)[C@H](CC2CCOCC2)NC(=O)c2ccc(F)cc2)cnc1S(=O)(=O)NC1CCCC1 [Compound I-82]
29 | < 0.05 | < 0.05 | – | – | COc1cc(NC(=O)[C@H](CC2CCOCC2)NC(=O)c2ccc(F)cc2)ccc1S(=O)(=O)NC1CCC1 [Compound I-86]
30 | 0.05 to 1 | – | 0.05 to 1 | – | Cn1nccc1CNS(=O)(=O)c1ccc(NC(=O)[C@H](Cc2ccccc2)NC(=O)c2ccc(F)cc2)cc1 [Compound I-205]
31 | < 0.05 | < 0.05 | – | – | CC(C)(C)NS(=O)(=O)c1ccc(NC(=O)[C@H](CC2CCN(C#N)CC2)NC(=O)c2ccc(F)cc2)cc1 [Compound I-165]
32 | < 0.05 | < 0.05 | – | – | CN1CCC(C[C@H](NC(=O)c2ccc(F)cn2)C(=O)Nc2ccc(S(=O)(=O)NC(C)(C)C)cc2)CC1 [Compound I-185, (S)—N-(1-((4-(N-(tert-butyl)sulfamoyl)phenyl)amino)-3-(1-methylpiperidin-4-yl)-1-oxopropan-2-yl)-5-fluoropicolinamide]
33 | 0.05 to 1 | – | 0.05 to 1 | – | CN1CCC(C[C@H](NC(=O)c2ccc(F)cc2)C(=O)Nc2ccc(S(=O)(=O)NC3COC3)cc2)CC1 [Compound I-99]
34 | < 0.05 | < 0.05 | – | – | CC(C)(C)NS(=O)(=O)c1ccc(NC(=O)C(CC2CCN(C=O)CC2)NC(=O)c2ccc(F)cc2)cc1 (stereo not drawn) [Compound I-145]
35 | < 0.05 | – | 0.05 to 1 | – | C[C@@H](CO)NS(=O)(=O)c1ccc(NC(=O)[C@H](Cc2ccccc2)NC(=O)c2ccc(F)cc2)cc1 [Compound I-129]
36 | 0.05 to 1 | – | 0.05 to 1 | – | CN1CCC(C[C@H](NC(=O)c2ccc(F)cc2)C(=O)Nc2ccc(S(=O)(=O)NC(C)(C)CO)nc2)CC1 [Compound I-106]
37 | < 0.05 | – | 0.05 to 1 | – | COc1cc(NC(=O)[C@H](Cc2ccccc2)NC(=O)c2ccc(F)cc2)ccc1S(=O)(=O)NC(C)(CO)CO [Compound I-138]
38 | 0.05 to 1 | – | 0.05 to 1 | – | CN1CCC(C[C@H](NC(=O)c2ccc(F)cc2)C(=O)Nc2ccc(S(=O)(=O)N[C@@H]3CCOC3)cc2)CC1 [Compound I-103]
39 | < 0.05 | < 0.05 | – | – | CC(C)(C)NS(=O)(=O)c1ccc(NC(=O)[C@H](CC2CCOCC2)NC(=O)c2ccc(F)nc2)cc1 [Compound I-196]
40 | < 0.05 | < 0.05 | – | – | CC(C)(C)NS(=O)(=O)c1ccc(NC(=O)[C@H](CC2CCN(Cc3ccccc3)CC2)NC(=O)c2ccc(F)cc2)cc1 [Compound I-115]
41 | < 0.05 | < 0.05 | – | – | COc1cc(NC(=O)[C@H](CC2CCN(C(C)=O)CC2)NC(=O)c2ccc(F)cc2)ccc1S(=O)(=O)NC(C)(C)C [Compound I-160]
42 | < 0.05 | < 0.05 | – | – | O=C(N[C@@H](Cc1ccccc1)C(=O)Nc1ccc(S(=O)(=O)NC2(CO)CC2)cc1)c1ccc(F)cc1 [Compound I-131]
43 | < 0.05 | < 0.05 | – | – | CN1CCC(C[C@H](NC(=O)c2ccc(F)cn2)C(=O)Nc2ccc(S(=O)(=O)NC(C)(C)C(F)(F)F)cc2)CC1 [Compound I-202]
44 | 0.05 to 1 | – | 0.05 to 1 | – | O=C(N[C@@H](CC1CCNCC1)C(=O)Nc1ccc(S(=O)(=O)NC2CCOCC2)cc1)c1ccc(F)cc1 [Compound I-157]
45 | 0.05 to 1 | – | 0.05 to 1 | – | CC(C)(NS(=O)(=O)c1ccc(NC(=O)[C@H](CC2CCNCC2)NC(=O)c2ccc(F)cn2)cc1)C(F)(F)F [Compound I-199]
46 | < 0.05 | – | 0.05 to 1 | – | COc1cc(NC(=O)[C@H](Cc2ccccc2)NC(=O)c2ccc(F)cc2)ccc1S(=O)(=O)N[C@@H](C)CO [Compound I-136]
47 | 0.05 to 1 | – | 0.05 to 1 | – | O=C(N[C@@H](CC1CCNCC1)C(=O)Nc1ccc(S(=O)(=O)N[C@@H]2CCOC2)cc1)c1ccc(F)cc1 [Compound I-107]

Row | SMILES | IC50 [1] [µM] | IC50 [2, 3] [µM] | IC50 [2, 4] [µM] | pIC50 [1]
48 | CC(C)(C)NS(=O)(=O)c1ccc(NC(=O)[C@H](Cc2ccccc2)NC(=O)c2ccc(F)cc2)cc1C(F)(F)F [Compound I-70, (S)—N-(1-(4-(N-tert-butylsulfamoyl)-3-(trifluoromethyl)phenylamino)-1-oxo-3-phenylpropan-2-yl)-4-fluorobenzamide] | – | < 0.05 | – | > 7.30
